{
  "source": "paper PMC5047629",
  "about": "“Synthesis, Pharmacological Profile and Docking Studies of New Sulfonamides Designed as Phosphodiesterase-4 Inhibitors” (PLoS ONE, 2016)",
  "key": {"[1]": {"tested_on": "A/J mice", "experiment": "Short-term murine model of asthma (OVA provocations at days 19 and 20), prophylactic treatment", "type": "in vivo", "details": "100 mg/Kg oral, 1 h before each OVA challenge, 24 h after last provocation", "procedure": "Sensitization was performed by means of a subcutaneous injection of 50 μg ovalbumin (OVA) (grade V; Sigma-Aldrich, St. Louis, MO) adsorbed to 5 mg of Al(OH)3 in 0.2 mL of sterile 0.9% NaCl (saline) at days 0 and 14. Intranasal OVA provocations (25 μg /25 μL saline) were performed at 19 and 20 days post-sensitization under isofluorane volatile anaesthesia (Cristalia, São Paulo, Brazil). Alternatively, sensitization as described above were done at days 0 and 7, while the OVA provocations were carried out at days 14, 21, 28 and 35 [39]. Negative control groups were represented by sensitized mice in which allergen was replaced by saline as a challenge. […]\nThe EPO activity present in lung tissue was determined with a colorimetric assay as described by Strath et al. (1985), with minor modifications. […] The optical density reading was performed on the SpectraMax M5 spectrophotometer (Molecular Devices) at a wavelength of 492 nm.\nTwenty-four hours after the last challenge the animals were killed by an over dose of thiopental (200 mg/kg, i.p.) and bronchoalveolar lavage (BAL) was performed three times by intratracheal instillation of 500 μL of PBS and EDTA (10 mM) through a trachea cannula and gently aspirating the fluid. […] Total leukocyte numbers were measured in Neubauer chambers using light microcopy after diluting the samples in Türk solution (2% acetic acid). […]"}, "[2]": {"target": "T1, PDE4D (Homo sapiens, UniProt Q08499)", "T1 construct": "purchased MDS PHARMA", "T1 sequence (Q08499 1-673 isoform Q08499-2)": "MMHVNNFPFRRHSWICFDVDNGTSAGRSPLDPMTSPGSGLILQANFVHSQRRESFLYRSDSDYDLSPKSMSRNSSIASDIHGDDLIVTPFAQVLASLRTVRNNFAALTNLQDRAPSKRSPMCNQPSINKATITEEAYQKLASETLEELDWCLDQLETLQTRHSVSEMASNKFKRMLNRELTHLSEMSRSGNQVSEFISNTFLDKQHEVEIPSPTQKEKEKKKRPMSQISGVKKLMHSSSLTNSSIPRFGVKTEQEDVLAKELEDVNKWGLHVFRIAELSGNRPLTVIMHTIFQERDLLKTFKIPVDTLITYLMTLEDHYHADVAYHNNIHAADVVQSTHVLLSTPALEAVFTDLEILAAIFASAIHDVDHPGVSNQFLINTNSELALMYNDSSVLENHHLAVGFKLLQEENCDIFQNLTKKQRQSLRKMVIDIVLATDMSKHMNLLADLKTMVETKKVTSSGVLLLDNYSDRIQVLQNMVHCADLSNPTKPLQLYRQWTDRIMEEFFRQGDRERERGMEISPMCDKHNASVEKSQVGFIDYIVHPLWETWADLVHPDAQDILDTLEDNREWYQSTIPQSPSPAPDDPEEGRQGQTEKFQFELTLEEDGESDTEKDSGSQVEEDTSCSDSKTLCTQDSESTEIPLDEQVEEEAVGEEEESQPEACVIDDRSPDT", "experiment": "PDE4D inhibition, IMAP fluorescence polarization protocol", "type": "biochemical", "procedure": "The enzymatic reactions were carried at room temperature in a 96-well black plate by co-incubating 25 μL of 200 nM FAM-cAMP (R7513), 5 μL of putative inhibitory compounds and 20 μL of the PDE4 isoform dissolved in assay buffer (R7364) for 1 h. All enzymes were obtained from human recombinant sources (MDS PHARMA), whereas the other reagents were purchased from Molecular Devices. […] PDE4 inhibitors were dissolved in dimethyl sulfoxide (DMSO) at a final concentration of 0.1%.\nThe inhibitory activities of the new sulfonamide derivatives were evaluated for their selectivity against the four isoforms of human PDE4, i.e. PDE4A, PDE4B, PDE4C, and PDE4D, using an IMAP-FP protocol."}},
  "data": [
    {"smiles": "COc1ccc(CCNS(=O)(=O)c2cc3c(cc2C)OCO3)cc1OC", "note": "[6a (LASSBio-448), N-(3,4-dimethoxyphenethyl)-6-methylbenzo[d][1, 3]dioxole-5-sulfonamide]", "values": [
      {"measurement": "eosinophil levels in bronchoalveolar lavage fluid", "setting": "[1]; Fig 4A", "value": "clearly prevented the up-regulation"},
      {"measurement": "eosinophil levels in lung tissue homogenates (EPO colorimetric assay)", "setting": "[1]; Fig 4B", "value": "clearly prevented the up-regulation"},
      {"measurement": "inhibition at 1 µM", "setting": "[2]; 1 μM, mean ± SEM, 3 experiments, read-out: PDE4D3 inhibition", "value": "26.5 ± 0.7", "unit": "%"},
      {"measurement": "selective inhibitory index (SI) PDE4D/PDE4A", "setting": "[2]; ratio of IC50 values", "value": 6.7},
      {"measurement": "selective inhibitory index (SI) PDE4D/PDE4B", "setting": "[2]; ratio of IC50 values", "value": 3.3},
      {"measurement": "IC50", "setting": "[2]; recombinant enzyme, mean ± SEM of three measurements", "value": "4.7 ± 0.09", "unit": "µM"}
    ]}
  ]
}
